In the supplement of paper PMC11628255, “Interference of metal ions on the bioluminescent signal of firefly, Renilla, and NanoLuc luciferases in high-throughput screening assays” (Frontiers in Chemistry, 2024):
± gives the standard deviation of the averaged measurements.

Tested on: firefly luciferase (FLuc)
Assay: normalised percent inhibition of luminescence (vs positive and negative controls); higher = stronger inhibition
Settings: metal salt concentration 0.001 mM; 100 mM HEPES buffer
Protocol: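 Concentration-response (>=11 concentrations) of metal salts on purified FLuc, NLuc or RLuc luminescence in screening (SC) or 100 mM HEPES (H) buffer; salt pre-incubated with enzyme 10 min at RT, read 10 min after substrate. Normalised percent inhibition vs plate positive (PTC-124, isradipine, BTS) and DMSO negative controls; triplicate wells.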

normalised percent inhibition [%] | Structure (SMILES)
100.1 ± 0.47 | CC#N.CC#N.CC#N.CC#N.F[B-](F)(F)F.[Cu+] [tetrakis(acetonitrile)copper(I) tetrafluoroborate]

Same assay, conditions: metal salt concentration 0.001 mM; screening conditions buffer

Structure (SMILES) | normalised percent inhibition [%]
O=[N+]([O-])[O-].[Ag+] [silver nitrate] | 100.19 ± 0.055
CC#N.CC#N.CC#N.CC#N.F[B-](F)(F)F.[Cu+] [tetrakis(acetonitrile)copper(I) tetrafluoroborate] | -12.4 ± 12

Same assay, conditions: metal salt concentration 0.002 mM; screening conditions buffer

Structure (SMILES) | normalised percent inhibition [%]
[Cl][Sn][Cl] [tin(II) chloride] | -6.84 ± 5.6
O=S(=O)([O-])[O-].[Fe+2] [iron(II) sulfate] | 1.35 ± 17
O=[N+]([O-])[O-].O=[N+]([O-])[O-].[Zn+2] [zinc nitrate] | 21.1 ± 28
O=[N+]([O-])[O-].[Ag+] [silver nitrate] | 100.6 ± 0.14
CC#N.CC#N.CC#N.CC#N.F[B-](F)(F)F.[Cu+] [tetrakis(acetonitrile)copper(I) tetrafluoroborate] | 6.86 ± 16

Same assay, conditions: metal salt concentration 0.005 mM; screening conditions buffer

Structure (SMILES) | normalised percent inhibition [%]
[Cl][Sn][Cl] [tin(II) chloride] | -10.8 ± 7.7
O=S(=O)([O-])[O-].[Fe+2] [iron(II) sulfate] | 9.94 ± 12
O=[N+]([O-])[O-].O=[N+]([O-])[O-].[Zn+2] [zinc nitrate] | 16.4 ± 15
O=[N+]([O-])[O-].[Ag+] [silver nitrate] | 100.7 ± 0.58
CC#N.CC#N.CC#N.CC#N.F[B-](F)(F)F.[Cu+] [tetrakis(acetonitrile)copper(I) tetrafluoroborate] | 13.5 ± 18

Same assay, conditions: metal salt concentration 0.01 mM; screening conditions buffer

Structure (SMILES) | normalised percent inhibition [%]
[Cl][Sn][Cl] [tin(II) chloride] | 6.44 ± 2.8
O=S(=O)([O-])[O-].[Fe+2] [iron(II) sulfate] | 4.1 ± 16
O=[N+]([O-])[O-].O=[N+]([O-])[O-].[Zn+2] [zinc nitrate] | 20.5 ± 20
O=[N+]([O-])[O-].[Ag+] [silver nitrate] | 100.4 ± 0.49
CC#N.CC#N.CC#N.CC#N.F[B-](F)(F)F.[Cu+] [tetrakis(acetonitrile)copper(I) tetrafluoroborate] | 8.64 ± 11

Same assay, conditions: metal salt concentration 0.02 mM; screening conditions buffer

Structure (SMILES) | normalised percent inhibition [%]
[Cl][Sn][Cl] [tin(II) chloride] | 1.32 ± 6
O=S(=O)([O-])[O-].[Fe+2] [iron(II) sulfate] | 6.54 ± 4.6
O=[N+]([O-])[O-].O=[N+]([O-])[O-].[Zn+2] [zinc nitrate] | 17.9 ± 15
O=[N+]([O-])[O-].[Ag+] [silver nitrate] | 100.7 ± 0.22
CC#N.CC#N.CC#N.CC#N.F[B-](F)(F)F.[Cu+] [tetrakis(acetonitrile)copper(I) tetrafluoroborate] | 7.18 ± 12

Same assay, conditions: metal salt concentration 0.025 mM; 100 mM HEPES buffer

Structure (SMILES) | normalised percent inhibition [%]
O=[N+]([O-])[O-].O=[N+]([O-])[O-].[Cd+2] [cadmium nitrate] | 95.9 ± 3.9
[Cl][Sn][Cl] [tin(II) chloride] | -26.1 ± 9.4
O=S(=O)([O-])[O-].[Fe+2] [iron(II) sulfate] | 62.5 ± 8.3
O.O.O.O.O.O.O.O=S(=O)([O-])[O-].[Mg+2] [magnesium sulfate] | -31.5 ± 17
O=[N+]([O-])[O-].O=[N+]([O-])[O-].[Pb+2] [lead(II) nitrate] | 88.9 ± 6.3
O=[N+]([O-])[O-].O=[N+]([O-])[O-].[Zn+2] [zinc nitrate] | 86.7 ± 4.5
O=[N+]([O-])[O-].[Ag+] [silver nitrate] | 100.4 ± 0.49
CC#N.CC#N.CC#N.CC#N.F[B-](F)(F)F.[Cu+] [tetrakis(acetonitrile)copper(I) tetrafluoroborate] | 100.5 ± 0.33

Same assay, conditions: metal salt concentration 0.025 mM; screening conditions buffer

normalised percent inhibition [%] | Structure (SMILES)
20.1 ± 6.7 | CC#N.CC#N.CC#N.CC#N.F[B-](F)(F)F.[Cu+] [tetrakis(acetonitrile)copper(I) tetrafluoroborate]

Same assay, conditions: metal salt concentration 0.05 mM; 100 mM HEPES buffer

Structure (SMILES) | normalised percent inhibition [%]
O=[N+]([O-])[O-].O=[N+]([O-])[O-].[Cd+2] [cadmium nitrate] | 99.08 ± 0.82
[Cl][Sn][Cl] [tin(II) chloride] | -13.9 ± 8.4
O=S(=O)([O-])[O-].[Fe+2] [iron(II) sulfate] | 100.1 ± 0.94
O.O.O.O.O.O.O.O=S(=O)([O-])[O-].[Mg+2] [magnesium sulfate] | -6.49 ± 17
O=[N+]([O-])[O-].O=[N+]([O-])[O-].[Pb+2] [lead(II) nitrate] | 94.75 ± 0.83
O=[N+]([O-])[O-].O=[N+]([O-])[O-].[Zn+2] [zinc nitrate] | 92.6 ± 3.1
O=[N+]([O-])[O-].[Ag+] [silver nitrate] | 100.3 ± 0.68
CC#N.CC#N.CC#N.CC#N.F[B-](F)(F)F.[Cu+] [tetrakis(acetonitrile)copper(I) tetrafluoroborate] | 100.3 ± 0.32

Same assay, conditions: metal salt concentration 0.05 mM; screening conditions buffer

Structure (SMILES) | normalised percent inhibition [%]
[Cl][Sn][Cl] [tin(II) chloride] | 19.1 ± 12
O=S(=O)([O-])[O-].[Fe+2] [iron(II) sulfate] | 7.51 ± 17
O=[N+]([O-])[O-].O=[N+]([O-])[O-].[Zn+2] [zinc nitrate] | 11.7 ± 13
O=[N+]([O-])[O-].[Ag+] [silver nitrate] | 99.8 ± 1.4
CC#N.CC#N.CC#N.CC#N.F[B-](F)(F)F.[Cu+] [tetrakis(acetonitrile)copper(I) tetrafluoroborate] | 3.96 ± 21

Same assay, conditions: metal salt concentration 0.1 mM; 100 mM HEPES buffer

Structure (SMILES) | normalised percent inhibition [%]
O=[N+]([O-])[O-].O=[N+]([O-])[O-].[Cd+2] [cadmium nitrate] | 99.41 ± 0.19
[Cl][Sn][Cl] [tin(II) chloride] | -9.51 ± 17
O=S(=O)([O-])[O-].[Fe+2] [iron(II) sulfate] | 99.99 ± 0.56
O.O.O.O.O.O.O.O=S(=O)([O-])[O-].[Mg+2] [magnesium sulfate] | -20 ± 13
O=[N+]([O-])[O-].O=[N+]([O-])[O-].[Pb+2] [lead(II) nitrate] | 96.7 ± 1.3
O=[N+]([O-])[O-].O=[N+]([O-])[O-].[Zn+2] [zinc nitrate] | 96.3 ± 1.4
O=[N+]([O-])[O-].[Ag+] [silver nitrate] | 100.6 ± 0.19
CC#N.CC#N.CC#N.CC#N.F[B-](F)(F)F.[Cu+] [tetrakis(acetonitrile)copper(I) tetrafluoroborate] | 100.5 ± 0.28

Same assay, conditions: metal salt concentration 0.1 mM; screening conditions buffer

Structure (SMILES) | normalised percent inhibition [%]
[Cl][Sn][Cl] [tin(II) chloride] | 56.5 ± 6.6
O=S(=O)([O-])[O-].[Fe+2] [iron(II) sulfate] | -0.76 ± 26
O=[N+]([O-])[O-].O=[N+]([O-])[O-].[Zn+2] [zinc nitrate] | 28.6 ± 18
